Results: the NIST ThermoML archive (doi:10.1016/j.jct.2007.11.001)

Test: molar heat capacity at constant pressure
Conditions: 101.33 kPa, Small (less than 1 g) adiabatic calorimetry

O=P([O-])([O-])[O-].[Cs+].[Mg+2] [caesium-magnesium monophosphate]
molar heat capacity at constant pressure [J/K/mol]
Conditions | Crystal 1 | Crystal 2
7.22 K | – | 0.956
7.3 K | – | 0.981
7.96 K | – | 1.22
8 K | – | 1.24
8.7 K | – | 1.59
9.4 K | – | 1.98
10.09 K | – | 2.4
10.42 K | – | 2.67
11.01 K | – | 3.12
11.69 K | – | 3.64
12.4 K | – | 4.2
13.07 K | – | 4.7
13.9 K | – | 5.392
14.63 K | – | 6.03
15.35 K | – | 6.706
16.06 K | – | 7.41
16.84 K | – | 8.22
17.45 K | – | 8.872
18.81 K | – | 10.39
19.49 K | – | 11.15
20.16 K | – | 11.94
21.16 K | – | 13.14
22.91 K | – | 15.3
25.31 K | – | 18.18
27.75 K | – | 20.87
30.21 K | – | 23.48
32.69 K | – | 25.92
35.16 K | – | 28.27
37.64 K | – | 30.51
40.12 K | – | 32.64
42.6 K | – | 34.69
45.08 K | – | 36.64
47.57 K | – | 38.55
52.52 K | – | 41.99
54.99 K | – | 43.63
57.47 K | – | 45.23
59.95 K | – | 46.77
61.64 K | – | 47.78
63.99 K | – | 49.13
67.48 K | – | 51.06
71.15 K | – | 53
74.82 K | – | 54.85
78.48 K | – | 56.63
82.15 K | – | 58.35
82.7 K | – | 58.61
85.82 K | – | 60.04
85.9 K | – | 60.06
88.99 K | – | 61.45
89.49 K | – | 61.67
91.95 K | – | 62.76
94.91 K | – | 64.05
97.87 K | – | 65.34
100.82 K | – | 66.59
103.77 K | – | 67.82
106.72 K | – | 69.04
109.68 K | – | 70.27
112.63 K | – | 71.51
115.8 K | – | 72.79
118.91 K | – | 74.06
121.88 K | – | 75.27
124.84 K | – | 76.48
127.8 K | – | 77.7
130.76 K | – | 78.9
133.72 K | – | 80.09
136.69 K | – | 81.3
139.65 K | – | 82.5
142.62 K | – | 83.64
145.59 K | – | 84.81
148.56 K | – | 85.97
151.53 K | – | 87.14
154.5 K | – | 88.22
157.6 K | – | 89.38
160.43 K | – | 90.46
163.6 K | – | 91.63
166.37 K | – | 92.62
169.34 K | – | 93.7
172.31 K | – | 94.79
175.74 K | – | 96.03
178.73 K | – | 97.11
182.05 K | – | 98.28
185.19 K | – | 99.36
188.17 K | – | 100.4
191.4 K | – | 101.5
194.3 K | – | 102.6
197.16 K | – | 103.5
199.5 K | – | 104.3
200.16 K | – | 104.6
202.4 K | – | 105.3
202.86 K | – | 105.5
205.51 K | – | 106.3
205.98 K | – | 106.6
208.48 K | – | 107.5
208.94 K | – | 107.8
211.44 K | – | 108.6
211.9 K | – | 108.9
214.13 K | – | 109.6
214.59 K | – | 109.9
217.18 K | – | 110.9
217.64 K | – | 111.2
220.64 K | – | 112.7
221.1 K | – | 113
223.65 K | – | 114.4
224.11 K | – | 114.9
226.53 K | – | 116.3
226.99 K | – | 116.9
232.4 K | – | 122.6
232.75 K | – | 123.1
235.69 K | 133.5 | 129.2
235.7 K | 129.1 | –
237.89 K | 126.1 | –
238.55 K | 124.9 | –
240.77 K | 121.7 | –
241.43 K | 120.9 | –
243.77 K | 118.8 | –
244.43 K | 118.3 | –
246.72 K | 116.9 | –
247.38 K | 116.7 | –
249.24 K | 115.8 | –
249.9 K | 115.7 | –
250 K | 112.2 | –
252.35 K | 115.1 | –
253.01 K | 114.9 | –
255.27 K | 114.7 | –
255.8 K | 114.7 | –
257.91 K | 114.8 | –
258.57 K | 114.8 | –
260 K | 114.2 | –
260.67 K | 115 | –
261.33 K | 115.1 | –
263.41 K | 115.3 | –
264.07 K | 115.4 | –
266.23 K | 115.7 | –
266.89 K | 115.8 | –
268.97 K | 116.1 | –
269.63 K | 116.2 | –
270 K | 116.3 | –
271.52 K | 116.5 | –
272.18 K | 116.7 | –
274.19 K | 117.1 | –
274.85 K | 117.2 | –
276.83 K | 117.7 | –
277.49 K | 117.8 | –
280 K | 118.3 | –
280.12 K | 118.3 | –
282.5 K | 118.8 | –
285.44 K | 119.4 | –
287.8 K | 119.8 | –
289.7 K | 120.3 | –
290 K | 120.3 | –
